Consider seven compounds from US11767314B2, “Bioenergetic nicotinic acid glycerol esters, compositions and methods of using same” (Conopco, Inc., priority 2018, dated 2023).

“Also recorded” adds a separate entry of the source.

In the assay the test system is Human dermal fibroblasts F5140616B1. Put plainly: Effect of NAEs on AMP/ATP Ratio in Fibroblast Cells (metabolites by LC/MS). It counts as cell-based. Further details: AMP/ATP Ratio: scale not given here. The note with it: for AMP/ATP Ratio / Increase Over Vehicle (AMP/ATP ratio): 500 uM, fibroblasts treated every other day for 6 days; for AMP/ATP Ratio: vehicle (ethanol) 367; for Increase Over Vehicle (AMP/ATP ratio): vs ethanol vehicle; for AMP/ATP ratio, result in words: fibroblast cells, 500 uM where stated. Here is the method: The experiments in this Example 2 were conducted in the following manner.
Method for Treatment of Fibroblasts with Bioenergetic Compounds
Human dermal fibroblasts F5140616B1 (MatTek Corporation, Ashland, Mass.) were derived from a donor and cultured in DMEM media (ThermoFisher Cat #31053-036) supplemented with FBS (Hyclone/Fisher Scientific Cat #SH30007103), glutamine (ThermoFisher Cat #35050-61) and sodium pyruvate (ThermoFisher Cat #11360-070). At the third passage, the cells were detached from the culture vessels using Trypsin/EDTA (T/E) solution (0.25 mg/mL) (Lonza Cat #CC-5012) and used for experimentation.
Cells were treated with the compounds every other day for a total of 6 days. Treatment involved removal of the spent media+compounds and replenishment with fresh media+compounds. At the end of the experiment, the cells were detached from the culture vessels using the standard procedure outlined above. The cells were centrifuged and then washed 1× with Dulbecco's PBS with no calcium or magnesium (ThermoFisher Cat #14190144) and then accurate cell counts were taken using a Scepter cell counter (EMD Millipore). The cells were then split equally into 2 Eppendorf tubes, and centrifuged. Excess PBS was then removed from the resulting cell pellets. The pellets were then immediately frozen on dry ice and sent to an external laboratory for analysis of metabolites by LC/MS.

In the case of `CCCC(=O)O[C@@H]1[C@@H](CO)OC([n+]2cccc(C(N)=O)c2)[C@@H]1OC(=O)CCC.O=S(=O)([O-])C(F)(F)F` (stereo partly drawn) [JR2, 1-((3R,4R,5R)-3,4-bis(butyryloxy)-5-(hydroxymethyl)tetrahydrofuran-2-yl)-3-carbamoylpyridin-1-ium trifluoromethanesulfonate], the “AMP/ATP Ratio” value worked out at 919 and the “Increase Over Vehicle (AMP/ATP ratio)” value is reported as 150%.
On to `CC1(C)OCC(COC(=O)c2cccnc2)O1` (stereo not shown) [VC1, (2,2-dimethyl-1,3-dioxolan-4-yl)methyl nicotinate], for which the “AMP/ATP Ratio” value amounted to 1010; the “Increase Over Vehicle (AMP/ATP ratio)” value came out at 175%; the “AMP/ATP ratio, result in words” value was “increased AMP/ATP ratio in testing; also recorded: notably increase the AMP/ATP ratio; also recorded: significantly elevated levels of AMP/ATP ratio over both, control vehicle and nicotinamide; also recorded: increase in the levels of AMP/ATP ratio; also recorded: demonstrably increased AMP/ATP ratio”.
In the case of `NC(=O)c1cccnc1` [Nicotinamide, reference compound], the “AMP/ATP Ratio” value came out at 529; the “Increase Over Vehicle (AMP/ATP ratio)” value turned out to be 44%; the “AMP/ATP ratio, result in words” value is recorded as “somewhat elevated levels of AMP/ATP ratio over control vehicle”.
Consider `CC(=O)O[C@@H]1[C@@H](CO)OC([n+]2cccc(C(N)=O)c2)[C@@H]1OC(C)=O.O=S(=O)([O-])C(F)(F)F` (stereo partly drawn) [JR1, 3-carbamoyl-1-((3R,4R,5R)-3,4-diacetoxy-5-(hydroxymethyl)tetrahydrofuran-2-yl)pyridin-1-ium trifluoromethanesulfonate], for which the “AMP/ATP Ratio” value was 756 and the “Increase Over Vehicle (AMP/ATP ratio)” value turned out to be 106%.
In the case of `CC1(C)OCC(OC(=O)c2cccnc2)CO1` [VC4, 2,2-dimethyl-1,3-dioxan-5-yl nicotinate], the “AMP/ATP Ratio” value is 941; the “Increase Over Vehicle (AMP/ATP ratio)” value is recorded as 156%; the “AMP/ATP ratio, result in words” value was “increased AMP/ATP ratio in testing; also recorded: notably increase the AMP/ATP ratio; also recorded: significantly elevated levels of AMP/ATP ratio over both, control vehicle and nicotinamide; also recorded: demonstrably increased AMP/ATP ratio”.
With `CC(=O)O[C@@H]1[C@@H](CO)OC(N2C=CCC(C(N)=O)=C2)[C@@H]1OC(C)=O` (stereo partly drawn) [JR3, (3R,4R,5R)-2-(3-carbamoylpyridin-1(4H)-yl)-5-(hydroxymethyl) tetrahydrofuran-3,4-diyl diacetate], the “AMP/ATP Ratio” value stood at 1231 and the “Increase Over Vehicle (AMP/ATP ratio)” value was 235%.
In the case of `O=C(OCC(O)CO)c1cccnc1` (stereo not shown) [VC2, 2,3-dihydroxypropyl nicotinate], the “AMP/ATP ratio, result in words” value was “increased AMP/ATP ratio in testing; also recorded: notably increase the AMP/ATP ratio; also recorded: increase in the levels of AMP/ATP ratio; also recorded: demonstrably increased AMP/ATP ratio”.
